Calls of active or inactive are those of the source.
Columns and labels:
Major prion protein = Major prion protein (Homo sapiens, UniProt P04156); assay type: functional, cell-based
cells [1] = assay: cells
Galanin receptor type 3 = Galanin receptor type 3 (Homo sapiens, UniProt O60755); assay: Fluorescence-based cell-based primary high throughput dose response assay to identify antagonists of the Galanin Receptor 3 (GalR3).; assay type: functional
cells [2] = assay type: functional, cell-based; settings: HEK-CNG
CHO-K1 = assay: (§1) Counterscreen for antagonists of the orexin 1 receptor (OX1R; HCRTR1): Homogeneous time resolved fluorescence (HTRF)-based cell-based dose response assay to identify antagonists of the parental CHO-K1 cell line. [Related pubchem assays (depositor defined):AID434989, AID435008, AID463079, AID485270, AID492963, AID492964, AID492965, AID493232, AID504699, AID504701]; assay type: functional; settings: Cricetulus griseus
Orexin receptor type 2 [3] = target: T1, Orexin receptor type 2 (Homo sapiens, UniProt O43614); assay: Counterscreen assay for antagonists of the orexin 1 receptor (OX1R; HCRTR1): Homogeneous Time Resolved Fluorescence (HTRF)-based cell-based dose response assay for antagonists of the orexin 2 receptor (OX2R; HCRTR2), run by assay provider.; assay type: functional
T1 sequence (O43614 whole entry): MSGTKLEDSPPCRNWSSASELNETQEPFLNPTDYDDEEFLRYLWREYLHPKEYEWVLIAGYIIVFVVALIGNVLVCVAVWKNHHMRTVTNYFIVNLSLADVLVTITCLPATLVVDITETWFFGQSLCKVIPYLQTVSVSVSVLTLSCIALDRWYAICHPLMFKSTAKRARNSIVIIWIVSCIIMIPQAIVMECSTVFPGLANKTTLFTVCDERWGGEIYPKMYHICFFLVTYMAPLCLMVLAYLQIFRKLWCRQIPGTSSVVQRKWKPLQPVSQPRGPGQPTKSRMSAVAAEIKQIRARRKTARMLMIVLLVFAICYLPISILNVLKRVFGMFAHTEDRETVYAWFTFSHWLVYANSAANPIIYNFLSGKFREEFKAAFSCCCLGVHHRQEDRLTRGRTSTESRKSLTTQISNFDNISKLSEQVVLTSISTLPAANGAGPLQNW

[4] = target: ATP-dependent translocase ABCB1 (Homo sapiens, UniProt P08183); assay: ABCB1 efflux pump inhibitor potency, dose response, Jurkat-DNR cells, JC-1, flow cytometry (AID 1689); assay type: functional
[5] = cytotoxicity toward NIH3T3 fibroblasts, dose response, counter-screen, cell-based, ATP luminescence, mouse fibroblasts (AID 2010); assay type: functional;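 further: cells exposed to compound for about 90 hours before reading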
[6] = target: T2, Orexin/Hypocretin receptor type 1 (Homo sapiens, UniProt O43613); assay: Homogeneous Time Resolved Fluorescence (HTRF)-based cell-based high throughput dose response assay for antagonists of the orexin 1 receptor (OX1R; HCRTR1). [Related pubchem assays (depositor defined):AID434989, AID435008, AID463079, AID485270, AID492963, AID492964, AID492965, AID493232, AID504717, AID504718]; assay type: functional
T2 sequence (O43613 whole entry): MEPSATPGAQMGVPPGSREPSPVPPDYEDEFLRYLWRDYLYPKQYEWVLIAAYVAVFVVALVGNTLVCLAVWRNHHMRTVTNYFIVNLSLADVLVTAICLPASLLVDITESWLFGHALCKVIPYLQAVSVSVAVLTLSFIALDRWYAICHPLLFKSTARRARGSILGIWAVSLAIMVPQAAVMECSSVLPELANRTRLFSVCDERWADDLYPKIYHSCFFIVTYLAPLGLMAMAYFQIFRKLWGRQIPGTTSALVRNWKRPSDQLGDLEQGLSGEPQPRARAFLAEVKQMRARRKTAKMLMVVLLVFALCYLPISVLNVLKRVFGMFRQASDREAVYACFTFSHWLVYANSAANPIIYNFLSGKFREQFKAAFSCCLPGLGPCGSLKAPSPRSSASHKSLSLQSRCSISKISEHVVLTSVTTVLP

Orexin receptor type 2 [7] = target: T1, Orexin receptor type 2; assay: Counterscreen assay for antagonists of the orexin 1 receptor (OX1R; HCRTR1): Fluorescence-based cell-based dose response assay for antagonists of the orexin 2 receptor (OX2R; HCRTR2), run by assay provider.; assay type: functional
[8] = as §1, with “Fluorescence-based” for “Homogeneous time resolved fluorescence (HTRF)-based”, “cell-based high throughput” for “cell-based”, “CHO” for “CHO-K1”; assay type: functional
[9] = target: T2, Orexin/Hypocretin receptor type 1; assay: Fluorescence-based cell-based high throughput dose response assay for antagonists of the orexin 1 receptor (OX1R; HCRTR1). [Related pubchem assays (depositor defined):AID434989, AID435008, AID463079, AID485270, AID492963, AID492964, AID492965, AID493232, AID504717, AID504718]; assay type: functional
[10] = target: Broad substrate specificity ATP-binding cassette transporter ABCG2 (Homo sapiens, UniProt Q9UNQ0); assay: ABCG2 efflux pump inhibitors, dose response, Ig-MXP3 cells, flow cytometry (AID 1690); assay type: functional
[11] = inhibitors of intracellular T. cruzi replication, confirmation, NIH3T3 host cells, beta-gal luminescence (AID 2044); assay type: functional, cell-based;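 further: intracellular parasites grown in NIH/3T3 mouse fibroblasts as host cells; luminescent beta-galactosidase reporter signal from transgenic T. cruzi replicating inside host cells; inhibitors lower the luminescence signal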
[12] = target: Disintegrin and metalloproteinase domain-containing protein 17 (Homo sapiens, UniProt P78536); assay: exosite inhibitors of ADAM17, dose response, biochemical (AID 743260)
[13] = ADAM10 protease inhibitors, dose response, selectivity assay for ADAM17 exosite inhibitor project, biochemical, FRET peptide substrate, recombinant human ADAM10 (AID 743259);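 further: ADAM10 enzyme cleaving a FRET peptide substrate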
[14] = target: T3, Replicative DNA helicase DnaB (Mycobacterium tuberculosis, UniProt P9WMR3); assay: DnaB intein splicing inhibitors, dose response, biochemical, cell-free fluorescence (AID 449749); assay type: functional
T3 sequence (P9WMR3 whole entry): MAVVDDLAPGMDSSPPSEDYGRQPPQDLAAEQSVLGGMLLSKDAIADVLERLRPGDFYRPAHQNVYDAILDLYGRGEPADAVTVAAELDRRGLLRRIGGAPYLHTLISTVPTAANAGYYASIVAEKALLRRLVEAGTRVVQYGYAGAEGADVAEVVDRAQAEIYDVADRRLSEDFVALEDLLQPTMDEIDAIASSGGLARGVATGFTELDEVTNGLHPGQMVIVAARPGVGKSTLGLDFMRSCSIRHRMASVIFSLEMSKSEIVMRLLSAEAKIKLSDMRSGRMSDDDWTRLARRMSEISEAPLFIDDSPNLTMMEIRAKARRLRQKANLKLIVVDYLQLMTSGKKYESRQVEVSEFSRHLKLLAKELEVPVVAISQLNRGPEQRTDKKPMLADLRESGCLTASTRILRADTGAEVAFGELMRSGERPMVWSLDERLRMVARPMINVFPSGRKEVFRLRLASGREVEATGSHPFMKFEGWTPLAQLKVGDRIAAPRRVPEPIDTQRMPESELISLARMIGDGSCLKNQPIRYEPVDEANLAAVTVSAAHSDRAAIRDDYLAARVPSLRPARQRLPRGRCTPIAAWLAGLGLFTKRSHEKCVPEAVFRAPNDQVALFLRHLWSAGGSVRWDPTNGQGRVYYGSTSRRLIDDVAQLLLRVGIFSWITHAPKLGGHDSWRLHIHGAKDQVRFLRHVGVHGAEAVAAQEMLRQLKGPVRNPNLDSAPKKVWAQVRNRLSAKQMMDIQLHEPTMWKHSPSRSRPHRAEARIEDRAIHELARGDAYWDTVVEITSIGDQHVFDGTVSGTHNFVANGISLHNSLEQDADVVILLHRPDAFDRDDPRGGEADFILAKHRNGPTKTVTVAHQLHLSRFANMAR

[15] = target: T4, Apoptotic protease-activating factor 1 (Homo sapiens, UniProt O14727); assay type: functional
T4 sequence (O14727 whole entry): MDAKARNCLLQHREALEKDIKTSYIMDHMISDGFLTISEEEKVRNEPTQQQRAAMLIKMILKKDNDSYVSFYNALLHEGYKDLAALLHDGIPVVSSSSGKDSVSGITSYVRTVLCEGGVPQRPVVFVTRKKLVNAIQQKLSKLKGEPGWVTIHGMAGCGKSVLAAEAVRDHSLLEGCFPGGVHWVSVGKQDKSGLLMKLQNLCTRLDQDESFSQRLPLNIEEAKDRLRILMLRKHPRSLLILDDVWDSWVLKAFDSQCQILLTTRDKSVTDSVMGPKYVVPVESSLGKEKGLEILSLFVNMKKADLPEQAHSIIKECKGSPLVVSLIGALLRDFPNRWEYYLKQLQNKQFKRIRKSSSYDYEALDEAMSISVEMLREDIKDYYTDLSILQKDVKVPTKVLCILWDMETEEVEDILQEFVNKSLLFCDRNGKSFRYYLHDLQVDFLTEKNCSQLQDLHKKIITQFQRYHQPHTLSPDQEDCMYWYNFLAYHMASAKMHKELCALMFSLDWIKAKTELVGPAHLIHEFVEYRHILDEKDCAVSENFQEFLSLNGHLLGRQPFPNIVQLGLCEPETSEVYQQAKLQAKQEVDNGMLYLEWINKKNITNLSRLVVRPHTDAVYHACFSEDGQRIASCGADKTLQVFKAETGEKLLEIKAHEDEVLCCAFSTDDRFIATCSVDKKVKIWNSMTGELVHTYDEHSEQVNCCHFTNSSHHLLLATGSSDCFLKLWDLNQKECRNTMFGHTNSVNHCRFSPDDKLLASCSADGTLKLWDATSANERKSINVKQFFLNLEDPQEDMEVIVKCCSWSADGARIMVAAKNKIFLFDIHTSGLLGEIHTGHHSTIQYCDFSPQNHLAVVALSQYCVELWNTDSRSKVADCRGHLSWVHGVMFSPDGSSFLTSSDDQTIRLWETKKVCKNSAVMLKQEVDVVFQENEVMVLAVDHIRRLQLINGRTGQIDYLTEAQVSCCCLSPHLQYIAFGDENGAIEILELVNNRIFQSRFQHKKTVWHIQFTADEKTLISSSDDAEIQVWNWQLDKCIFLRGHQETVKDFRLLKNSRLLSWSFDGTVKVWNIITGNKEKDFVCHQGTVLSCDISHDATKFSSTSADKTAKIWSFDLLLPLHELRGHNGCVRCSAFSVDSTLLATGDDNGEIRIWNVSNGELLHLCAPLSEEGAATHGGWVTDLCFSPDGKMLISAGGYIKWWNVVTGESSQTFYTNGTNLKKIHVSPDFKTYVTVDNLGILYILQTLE

[16] = target: Histone-lysine N-methyltransferase NSD2 (Homo sapiens, UniProt O96028); assay type: biochemical
Genome polyprotein = Genome polyprotein (dengue virus type 2, UniProt P29990); assay: Dengue-2 NS5 methyltransferase inhibitors, primary screen, biochemical, confirmation dose response (AID 588689); assay type: functional
Protein RecA = target: T5, Protein RecA (Mycobacterium tuberculosis, UniProt P9WHJ3); assay: Fluorescence Cell-Free Homogeneous Dose Retest to Identify Inhibitors of RecA-Intein Splicing Activity. [Related pubchem assays (depositor defined):AID2097, AID2223, AID489010, AID492950]; assay type: functional
T5 sequence (P9WHJ3 whole entry): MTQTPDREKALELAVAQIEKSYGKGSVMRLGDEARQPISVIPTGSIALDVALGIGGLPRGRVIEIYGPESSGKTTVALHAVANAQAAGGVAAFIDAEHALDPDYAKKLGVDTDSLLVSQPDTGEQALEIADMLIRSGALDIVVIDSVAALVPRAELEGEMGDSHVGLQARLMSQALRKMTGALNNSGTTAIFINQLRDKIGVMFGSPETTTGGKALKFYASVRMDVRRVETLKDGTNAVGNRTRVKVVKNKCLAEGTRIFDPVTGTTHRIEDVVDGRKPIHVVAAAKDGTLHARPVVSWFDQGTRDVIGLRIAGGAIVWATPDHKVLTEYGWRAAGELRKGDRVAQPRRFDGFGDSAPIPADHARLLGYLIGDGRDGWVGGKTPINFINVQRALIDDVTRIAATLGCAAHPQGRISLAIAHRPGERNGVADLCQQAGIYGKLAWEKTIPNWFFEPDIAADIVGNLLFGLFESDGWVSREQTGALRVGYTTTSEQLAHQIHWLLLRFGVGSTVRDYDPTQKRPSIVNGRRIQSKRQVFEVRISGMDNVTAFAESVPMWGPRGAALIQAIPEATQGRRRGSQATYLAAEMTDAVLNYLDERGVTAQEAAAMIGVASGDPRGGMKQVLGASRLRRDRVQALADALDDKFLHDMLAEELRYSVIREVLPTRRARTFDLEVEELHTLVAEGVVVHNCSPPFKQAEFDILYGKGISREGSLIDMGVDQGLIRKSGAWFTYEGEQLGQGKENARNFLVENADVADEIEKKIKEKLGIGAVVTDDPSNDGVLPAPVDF

Genome polyprotein, sequence (P29990 2492-3391 limits assumed): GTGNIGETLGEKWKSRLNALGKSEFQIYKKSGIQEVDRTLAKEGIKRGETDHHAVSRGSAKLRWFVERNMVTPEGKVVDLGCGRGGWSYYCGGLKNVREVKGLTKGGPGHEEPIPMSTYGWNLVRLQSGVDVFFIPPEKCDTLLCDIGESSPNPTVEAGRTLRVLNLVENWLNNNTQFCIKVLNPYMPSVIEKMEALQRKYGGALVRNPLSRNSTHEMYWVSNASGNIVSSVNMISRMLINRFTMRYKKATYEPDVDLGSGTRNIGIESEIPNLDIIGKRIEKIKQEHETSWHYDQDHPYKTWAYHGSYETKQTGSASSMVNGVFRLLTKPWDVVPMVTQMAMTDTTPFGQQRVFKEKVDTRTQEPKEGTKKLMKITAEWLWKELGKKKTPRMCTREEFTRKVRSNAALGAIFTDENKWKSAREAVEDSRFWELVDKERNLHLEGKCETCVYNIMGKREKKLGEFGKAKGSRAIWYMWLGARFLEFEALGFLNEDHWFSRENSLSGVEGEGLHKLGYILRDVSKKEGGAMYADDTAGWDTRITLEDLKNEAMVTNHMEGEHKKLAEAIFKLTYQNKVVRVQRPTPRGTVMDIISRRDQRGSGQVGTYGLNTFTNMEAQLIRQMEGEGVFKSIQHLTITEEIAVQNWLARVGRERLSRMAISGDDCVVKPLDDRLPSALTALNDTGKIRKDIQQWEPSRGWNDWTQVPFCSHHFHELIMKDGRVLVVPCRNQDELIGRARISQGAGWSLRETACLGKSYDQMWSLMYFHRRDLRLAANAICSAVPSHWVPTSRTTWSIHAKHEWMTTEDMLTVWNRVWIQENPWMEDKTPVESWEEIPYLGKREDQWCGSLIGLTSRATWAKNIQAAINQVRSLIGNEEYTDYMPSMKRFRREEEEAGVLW
Disintegrin and metalloproteinase domain-containing protein 17, sequence (P78536 whole entry, the tested form may be a part): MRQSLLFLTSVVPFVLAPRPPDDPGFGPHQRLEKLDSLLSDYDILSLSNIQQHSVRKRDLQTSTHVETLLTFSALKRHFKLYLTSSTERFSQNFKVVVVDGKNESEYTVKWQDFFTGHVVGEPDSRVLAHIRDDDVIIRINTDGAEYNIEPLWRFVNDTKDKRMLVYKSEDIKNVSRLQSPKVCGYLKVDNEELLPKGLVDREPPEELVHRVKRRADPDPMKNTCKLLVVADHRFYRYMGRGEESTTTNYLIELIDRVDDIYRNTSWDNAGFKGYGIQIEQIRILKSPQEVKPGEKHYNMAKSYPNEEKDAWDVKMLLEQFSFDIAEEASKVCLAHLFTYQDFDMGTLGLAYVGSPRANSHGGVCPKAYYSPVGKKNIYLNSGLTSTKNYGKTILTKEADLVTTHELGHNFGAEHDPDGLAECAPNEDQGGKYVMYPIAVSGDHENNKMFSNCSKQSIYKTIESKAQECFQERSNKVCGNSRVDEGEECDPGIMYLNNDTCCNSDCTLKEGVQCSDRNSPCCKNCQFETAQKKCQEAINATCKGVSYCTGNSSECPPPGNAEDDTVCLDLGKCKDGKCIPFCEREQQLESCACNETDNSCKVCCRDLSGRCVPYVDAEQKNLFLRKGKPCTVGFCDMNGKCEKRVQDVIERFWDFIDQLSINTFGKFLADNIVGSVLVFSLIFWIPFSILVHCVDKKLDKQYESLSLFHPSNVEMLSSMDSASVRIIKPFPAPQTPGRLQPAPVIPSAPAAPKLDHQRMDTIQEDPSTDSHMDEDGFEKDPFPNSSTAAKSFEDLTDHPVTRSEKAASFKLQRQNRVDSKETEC
Histone-lysine N-methyltransferase NSD2, sequence (O96028 whole entry): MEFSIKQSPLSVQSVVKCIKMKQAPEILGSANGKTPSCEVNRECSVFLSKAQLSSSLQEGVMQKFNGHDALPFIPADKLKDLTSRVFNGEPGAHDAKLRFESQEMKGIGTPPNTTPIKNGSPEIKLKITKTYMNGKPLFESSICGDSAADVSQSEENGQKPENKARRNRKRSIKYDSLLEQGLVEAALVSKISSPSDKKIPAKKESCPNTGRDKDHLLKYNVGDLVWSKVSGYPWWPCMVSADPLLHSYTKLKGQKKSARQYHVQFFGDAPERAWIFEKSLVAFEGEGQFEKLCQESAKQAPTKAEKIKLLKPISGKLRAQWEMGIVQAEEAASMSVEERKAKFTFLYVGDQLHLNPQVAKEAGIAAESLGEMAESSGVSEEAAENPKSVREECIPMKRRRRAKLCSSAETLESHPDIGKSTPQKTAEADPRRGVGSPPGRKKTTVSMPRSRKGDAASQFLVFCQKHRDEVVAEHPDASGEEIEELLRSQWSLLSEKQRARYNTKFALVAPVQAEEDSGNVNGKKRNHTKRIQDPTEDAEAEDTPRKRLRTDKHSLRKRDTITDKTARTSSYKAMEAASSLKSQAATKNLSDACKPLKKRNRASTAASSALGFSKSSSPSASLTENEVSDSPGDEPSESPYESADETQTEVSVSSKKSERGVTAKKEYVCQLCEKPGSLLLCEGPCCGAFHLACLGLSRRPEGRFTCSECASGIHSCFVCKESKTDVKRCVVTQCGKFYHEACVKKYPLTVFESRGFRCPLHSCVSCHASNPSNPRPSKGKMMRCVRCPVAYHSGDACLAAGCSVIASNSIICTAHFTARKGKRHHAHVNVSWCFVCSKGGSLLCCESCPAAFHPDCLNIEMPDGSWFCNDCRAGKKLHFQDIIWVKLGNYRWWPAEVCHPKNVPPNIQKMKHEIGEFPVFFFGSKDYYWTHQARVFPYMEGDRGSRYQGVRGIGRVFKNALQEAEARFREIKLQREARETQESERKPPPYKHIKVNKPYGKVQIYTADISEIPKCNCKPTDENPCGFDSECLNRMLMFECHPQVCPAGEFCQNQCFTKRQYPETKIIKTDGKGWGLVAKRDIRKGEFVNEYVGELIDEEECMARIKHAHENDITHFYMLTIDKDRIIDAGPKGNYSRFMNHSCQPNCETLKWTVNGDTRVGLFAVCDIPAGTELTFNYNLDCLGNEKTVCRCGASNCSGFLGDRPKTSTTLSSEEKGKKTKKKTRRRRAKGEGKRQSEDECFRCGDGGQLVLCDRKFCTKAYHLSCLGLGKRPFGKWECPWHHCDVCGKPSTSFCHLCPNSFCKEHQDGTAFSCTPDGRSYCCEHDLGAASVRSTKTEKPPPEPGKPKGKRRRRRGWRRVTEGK
Galanin receptor type 3, sequence (O60755 whole entry): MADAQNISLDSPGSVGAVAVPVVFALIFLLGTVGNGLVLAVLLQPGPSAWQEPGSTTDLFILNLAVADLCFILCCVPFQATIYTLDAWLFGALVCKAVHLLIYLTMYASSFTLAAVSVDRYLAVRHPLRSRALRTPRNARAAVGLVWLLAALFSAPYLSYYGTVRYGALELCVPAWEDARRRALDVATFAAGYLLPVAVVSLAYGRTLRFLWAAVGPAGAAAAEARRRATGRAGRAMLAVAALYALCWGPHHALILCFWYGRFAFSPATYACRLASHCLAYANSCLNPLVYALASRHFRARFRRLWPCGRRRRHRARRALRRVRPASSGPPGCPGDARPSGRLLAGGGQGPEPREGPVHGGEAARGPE
Broad substrate specificity ATP-binding cassette transporter ABCG2, sequence (Q9UNQ0 whole entry): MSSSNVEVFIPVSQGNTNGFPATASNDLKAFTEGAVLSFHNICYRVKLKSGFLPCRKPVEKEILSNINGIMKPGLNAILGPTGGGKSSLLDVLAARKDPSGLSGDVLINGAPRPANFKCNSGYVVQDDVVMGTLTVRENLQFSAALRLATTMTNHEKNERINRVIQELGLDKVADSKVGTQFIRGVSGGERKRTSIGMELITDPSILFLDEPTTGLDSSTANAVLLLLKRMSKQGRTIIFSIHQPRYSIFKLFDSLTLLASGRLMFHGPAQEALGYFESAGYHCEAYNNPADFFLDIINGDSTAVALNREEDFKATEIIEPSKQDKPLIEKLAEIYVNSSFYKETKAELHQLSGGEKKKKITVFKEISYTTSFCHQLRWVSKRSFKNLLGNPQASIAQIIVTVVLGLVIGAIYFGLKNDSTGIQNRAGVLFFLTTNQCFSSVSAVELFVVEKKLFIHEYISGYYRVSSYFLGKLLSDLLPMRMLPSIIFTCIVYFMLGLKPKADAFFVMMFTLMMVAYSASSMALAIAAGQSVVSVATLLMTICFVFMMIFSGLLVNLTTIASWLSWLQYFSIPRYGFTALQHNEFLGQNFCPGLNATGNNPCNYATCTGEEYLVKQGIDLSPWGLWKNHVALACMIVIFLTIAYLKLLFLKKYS

Cc1cc(NC(=O)C(C)Sc2nc(-c3cccs3)nc3ccccc23)no1 (stereo not drawn)
IC50 (Major prion protein): 1.7 µM (active)
IC50 (cells [1]): > 138 µM (inactive)

COc1ccc(C(=O)CSc2nnc(Cn3cnc4ccccc43)o2)cc1
IC50 (Galanin receptor type 3): 0.891 µM (active)
EC50 (cells [2]): > 29.9 µM (inactive)

CCN(CC)P(=O)(Nc1cccc(C(F)(F)F)c1)c1ccc(N(C)C)cc1NC(=O)c1ccco1 (stereo not drawn)
IC50 (CHO-K1): > 66.2 µM (inactive)
IC50 (Orexin receptor type 2 [3]): > 50 µM (inactive)
EC50 [4]: 0.998 µM (active)
EC50 [5]: > 30 µM (not active)
IC50 [6]: 0.184 µM (active)
IC50 (Orexin receptor type 2 [7]): 5 µM (active)
IC50 [8]: > 49.8 µM (inactive)
IC50 [9]: 2.29 µM (active)
EC50 [10]: 2.29 µM (active)
EC50 [11]: 1.3 µM (active)

Cc1ccc(-n2c(C3CC3c3ccc(Cl)cc3)n[nH]c2=S)cc1 (stereo not drawn)
IC50 [12]: > 69.5 µM (inactive)

Cc1ccc(-n2c(S)nnc2C2CC2c2ccc(Cl)cc2)cc1 (stereo not drawn)
IC50 [13]: > 69.5 µM (inactive)

Cc1ccc(Cc2c(-c3ccco3)nc3c(C)cc(Br)cn23)cc1
IC50 (Major prion protein): 9.95 µM (active)
IC50 (cells [1]): 78.6 µM (inactive)

CC(C)(C)c1ccc(S(=O)(=O)/N=C2\C=C(NS(=O)(=O)c3ccccc3)C(=O)c3ccccc32)cc1
AC50 [14]: 4.68 µM (active)
IC50 [15]: 15 µM (active)
AC50 [16]: 3.73 µM (active)
IC50 (Genome polyprotein): 25.5 µM (active)
EC50 (Protein RecA): 4.85 µM (active)

Reference: ChEMBL document CHEMBL1201862, “PubChem BioAssay data set” (2004)
